# Test results published in patent publication US10125134B2 (Mirati Therapeutics, Inc., priority 2016, dated 2018).
# Structures can show the parent of a compound that is named as a salt. Where two headings read alike, the source gives them in different places.
# Legend:
# KRas G12C = KRas G12C (Homo sapiens, UniProt P01116, C118S/C51S/C80L/G12C); test: KRas G12C Modification Assay (LCMS detection of covalent adduct); format: binding; details: normalized percent of control; tested at 5 μM concentration for 3 hours
# Method in brief: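 Covalent modification was read by reverse-phase LC/MS of intact protein after compound exposure, each reaction stopped at its time point with 25 mM acetic acid. Unmodified-protein signal, taken as percent of total, was normalised to untreated protein and reported as POC.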
# [1] = system: NCI-H358 cells (express KRas G12C), Phospho-ERK; test: Cellular inhibition of KRas G12C: Phospho-ERK in NCI-H358 cells; format: cell-based; details: pERK(Thr202/Tyr204) normalized with GAPDH, NCI-H358 cells, 3 hours, read-out: IC50
# Method in brief: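 IC50 derived by 4-parameter fit of GAPDH-normalized pERK(Thr202/Tyr204) signal, as percent of DMSO control. Signal came from in-cell immunodetection with infrared secondaries after 3 h compound exposure of KRas G12C NCI-H358 cells at 0.5% DMSO.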
Compound,POC (KRas G12C),IC50 [1] [nM],"IC50 ([1]; Homo sapiens, NCI-H358, 3 h) [nM]"
"C=CC(=O)N1CCN(c2nc(OC[C@H]3CCCN3C)nc3c2CCN(c2ccccc2C(F)(F)F)C3)CC1CC#N (stereo partly drawn) [Example 299, 2-[4-[2-[[(2R)-1-methylpyrrolidin-2-yl]methoxy]-7-[2-(trifluoromethyl)phenyl]-6,8-dihydro-5H-pyrido[3,4-d]pyrimidin-4-yl]-1-prop-2-enoyl-piperazin-2-yl]acetonitrile]",C (“C”>50% POC),0.1 to 1000,–
"C=CC(=O)N1CCN(c2nc(OC[C@@H]3CCCN3C)nc3c2CCN(c2c(OC)ccc4[nH]ncc24)C3)CC1 [Example 157, (S)-1-(4-(7-(5-methoxy-1H-indazol-4-yl)-2-((1-methylpyrrolidin-2-yl)methoxy)-5,6,7,8-tetrahydropyrido[3,4-d]pyrimidin-4-yl)piperazin-1-yl)prop-2-en-1-one]",C (“C”>50% POC),–,> 1000
"C=CC(=O)N1CCN(c2nc(OCCN(C)C)nc3c2CCN(c2cc(O)cc4ccccc24)C3)C[C@H]1C [Example 15, (R)-1-(4-(2-(2-(dimethylamino)ethoxy)-7-(3-hydroxynaphthalen-1-yl)-5,6,7,8-tetrahydropyrido[3,4-d]pyrimidin-4-yl)-2-methylpiperazin-1-yl)prop-2-en-1-one]",C (“C”>50% POC),–,> 1000
"C=CC(=O)N1CCN(c2nc(OC[C@@H]3CCCN3C)nc3c2CCN(c2cccc(Cl)c2C(F)(F)F)C3)C[C@@H]1CC#N [Example 427, 2-((S)-1-acryloyl-4-(7-(3-chloro-2-(trifluoromethyl)phenyl)-2-(((S)-1-methylpyrrolidin-2-yl)methoxy)-5,6,7,8-tetrahydropyrido[3,4-d]pyrimidin-4-yl)piperazin-2-yl)acetonitrile]",C (“C”>50% POC),–,0.1 to 1000
"C=CC(=O)N1CCN(c2nc(OC[C@H]3CCCN3CCO)nc3c2CCN(c2cccc4ccccc24)C3)C[C@@H]1CC#N [Example 329, 2-[(2S)-4-[2-[[(2R)-1-(2-hydroxyethyl)pyrrolidin-2-yl]methoxy]-7-(1-naphthyl)-6,8-dihydro-5H-pyrido[3,4-d]pyrimidin-4-yl]-1-prop-2-enoyl-piperazin-2-yl]acetonitrile]",C (“C”>50% POC),–,0.1 to 1000

# More lines, main results first:
POC (KRas G12C),Compound,IC50 [1] [nM],"IC50 ([1]; Homo sapiens, NCI-H358, 3 h) [nM]"
C (“C”>50% POC),"C=CC(=O)N1CCN(c2nc(OCCN3CCC(OC)CC3)nc3c2CCN(c2cc(O)cc4ccccc24)C3)CC1 [Example 108, 1-(4-(7-(3-hydroxynaphthalen-1-yl)-2-(2-(4-methoxypiperidin-1-yl)ethoxy)-5,6,7,8-tetrahydropyrido[3,4-d]pyrimidin-4-yl)piperazin-1-yl)prop-2-en-1-one]",–,0.1 to 1000
B (“B”>25% POC−≤50% POC),"C=CC(=O)N1CCN(c2nc(OCCN3CCS(=O)(=O)CC3)nc3c2CCN(c2cc(O)cc4ccccc24)C3)CC1 [Example 33, 1-(4-(2-(2-(1,1-dioxidothiomorpholino)ethoxy)-7-(3-hydroxynaphthalen-1-yl)-5,6,7,8-tetrahydropyrido[3,4-d]pyrimidin-4-yl)piperazin-1-yl)prop-2-en-1-one trifluoroacetate]",–,> 1000
C (“C”>50% POC),"C=CC(=O)N1CCN(c2nc(OC[C@@H]3CCCC(=O)N3)nc3c2CCN(c2cc(O)cc4ccccc24)C3)CC1 (single isomer, unassigned) [Example 61]",–,> 1000
